Test results published in ChEMBL document CHEMBL5649169 (ChemMedChem, 2018).

Experiments:
[1] = molecular target: Transaldolase (Homo sapiens) (UniProt P37837)
[2] = molecular target: DNA mismatch repair protein Msh6 (Homo sapiens) (UniProt P52701)
[3] = molecular target: Ras-related protein Rab-6A (Homo sapiens) (UniProt P20340)
[4] = molecular target: Importin-7 (Homo sapiens) (UniProt O95373)
[5] = molecular target: Vacuole membrane protein 1 (Homo sapiens) (UniProt Q96GC9)
[6] = molecular target: Eukaryotic translation initiation factor 3 subunit D (Homo sapiens) (UniProt O15371)
[7] = molecular target: Probable rRNA-processing protein EBP2 (Homo sapiens) (UniProt Q99848)
[8] = molecular target: Microfibrillar-associated protein 1 (Homo sapiens) (UniProt P55081)
[9] = molecular target: Uncharacterized aarF domain-containing protein kinase 5 (Homo sapiens) (UniProt Q3MIX3)
[10] = molecular target: Choline/ethanolaminephosphotransferase 1 (Homo sapiens) (UniProt Q9Y6K0)
[11] = molecular target: Stearoyl-CoA desaturase (Homo sapiens) (UniProt O00767)
[12] = molecular target: Conserved oligomeric Golgi complex subunit 2 (Homo sapiens) (UniProt Q14746)
[13] = molecular target: Rapamycin-insensitive companion of mTOR (Homo sapiens) (UniProt Q6R327)
[14] = molecular target: SPATS2-like protein (Homo sapiens) (UniProt Q9NUQ6)
[15] = molecular target: DNA polymerase delta subunit 3 (Homo sapiens) (UniProt Q15054)
[16] = molecular target: Macrophage migration inhibitory factor (Homo sapiens) (UniProt P14174)
[17] = species on record: Homo sapiens
[18] = molecular target: Cell growth-regulating nucleolar protein (Homo sapiens) (UniProt Q9NX58)
[19] = species on record: Homo sapiens; remark: listed apart in the source
[20] = molecular target: Nuclear factor NF-kappa-B p105 subunit (Homo sapiens) (UniProt P19838)
[21] = molecular target: Ubiquitin carboxyl-terminal hydrolase 9X (Homo sapiens) (UniProt Q93008)
[22] = molecular target: Programmed cell death protein 10 (Homo sapiens) (UniProt Q9BUL8)
[23] = molecular target: Small ribosomal subunit protein mS34 (Homo sapiens) (UniProt P82930)
[24] = molecular target: Polyadenylate-binding protein 4 (Homo sapiens) (UniProt Q13310)
[25] = molecular target: ATP-dependent RNA helicase DHX29 (Homo sapiens) (UniProt Q7Z478)
[26] = molecular target: Putative protein-lysine deacylase ABHD14B (Homo sapiens) (UniProt Q96IU4)
[27] = molecular target: Very long chain fatty acid elongase 5 (Homo sapiens) (UniProt Q9NYP7)
[28] = molecular target: Cytochrome c oxidase assembly protein COX14 (Homo sapiens) (UniProt Q96I36)
[29] = molecular target: Phenylalanine--tRNA ligase beta subunit (Homo sapiens) (UniProt Q9NSD9)
[30] = molecular target: Glutathione S-transferase kappa 1 (Homo sapiens) (UniProt Q9Y2Q3)
[31] = molecular target: Serine/threonine-protein kinase pim-2 (Homo sapiens) (UniProt Q9P1W9)
[32] = molecular target: Y-box-binding protein 3 (Homo sapiens) (UniProt P16989)
[33] = molecular target: YTH domain-containing family protein 2 (Homo sapiens) (UniProt Q9Y5A9)
[34] = molecular target: 14-3-3 protein zeta/delta (Homo sapiens) (UniProt P63104)
[35] = species on record: Homo sapiens; remark: listed apart in the source
[36] = molecular target: Transducin beta-like protein 3 (Homo sapiens) (UniProt Q12788)
[37] = molecular target: Pleckstrin homology domain-containing family G member 3 (Homo sapiens) (UniProt A1L390)
[38] = molecular target: Acetyl-CoA carboxylase 2 (Homo sapiens) (UniProt O00763)
[39] = species on record: Homo sapiens; remark: listed apart in the source
[40] = molecular target: H/ACA ribonucleoprotein complex subunit 1 (Homo sapiens) (UniProt Q9NY12)
[41] = molecular target: ATP synthase F(0) complex subunit 8 (Homo sapiens) (UniProt P03928)
[42] = molecular target: Elongation factor G, mitochondrial (Homo sapiens) (UniProt Q96RP9)
[43] = molecular target: Parathymosin (Homo sapiens) (UniProt P20962)
[44] = molecular target: ATP-dependent RNA helicase A (Homo sapiens) (UniProt Q08211)
[45] = molecular target: Calcium-binding and coiled-coil domain-containing protein 2 (Homo sapiens) (UniProt Q13137)
[46] = molecular target: Small ribosomal subunit protein mS40 (Homo sapiens) (UniProt Q9Y676)
[47] = molecular target: Dual specificity protein kinase CLK4 (Homo sapiens) (UniProt Q9HAZ1)
[48] = species on record: Homo sapiens; remark: listed apart in the source
[49] = species on record: Homo sapiens; remark: listed apart in the source
Note: assay method not described here.

Uncharacterized aarF domain-containing protein kinase 5 (Homo sapiens), sequence (Q3MIX3 whole entry, the tested form may be a part): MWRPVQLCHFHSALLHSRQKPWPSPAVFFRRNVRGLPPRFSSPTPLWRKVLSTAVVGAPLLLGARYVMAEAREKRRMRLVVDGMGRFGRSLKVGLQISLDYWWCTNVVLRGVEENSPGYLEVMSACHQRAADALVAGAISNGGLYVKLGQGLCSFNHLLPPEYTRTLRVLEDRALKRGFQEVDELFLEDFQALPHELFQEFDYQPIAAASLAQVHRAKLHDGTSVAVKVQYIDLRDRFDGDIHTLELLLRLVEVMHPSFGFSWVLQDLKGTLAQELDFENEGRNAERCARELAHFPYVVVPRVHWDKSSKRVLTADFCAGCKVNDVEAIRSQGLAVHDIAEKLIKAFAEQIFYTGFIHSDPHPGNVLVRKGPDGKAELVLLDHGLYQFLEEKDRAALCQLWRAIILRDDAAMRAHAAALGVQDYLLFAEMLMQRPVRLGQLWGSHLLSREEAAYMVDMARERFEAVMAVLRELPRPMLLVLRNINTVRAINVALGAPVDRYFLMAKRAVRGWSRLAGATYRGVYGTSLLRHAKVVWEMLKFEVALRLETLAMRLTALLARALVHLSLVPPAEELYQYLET
Phenylalanine--tRNA ligase beta subunit (Homo sapiens), sequence (Q9NSD9 whole entry): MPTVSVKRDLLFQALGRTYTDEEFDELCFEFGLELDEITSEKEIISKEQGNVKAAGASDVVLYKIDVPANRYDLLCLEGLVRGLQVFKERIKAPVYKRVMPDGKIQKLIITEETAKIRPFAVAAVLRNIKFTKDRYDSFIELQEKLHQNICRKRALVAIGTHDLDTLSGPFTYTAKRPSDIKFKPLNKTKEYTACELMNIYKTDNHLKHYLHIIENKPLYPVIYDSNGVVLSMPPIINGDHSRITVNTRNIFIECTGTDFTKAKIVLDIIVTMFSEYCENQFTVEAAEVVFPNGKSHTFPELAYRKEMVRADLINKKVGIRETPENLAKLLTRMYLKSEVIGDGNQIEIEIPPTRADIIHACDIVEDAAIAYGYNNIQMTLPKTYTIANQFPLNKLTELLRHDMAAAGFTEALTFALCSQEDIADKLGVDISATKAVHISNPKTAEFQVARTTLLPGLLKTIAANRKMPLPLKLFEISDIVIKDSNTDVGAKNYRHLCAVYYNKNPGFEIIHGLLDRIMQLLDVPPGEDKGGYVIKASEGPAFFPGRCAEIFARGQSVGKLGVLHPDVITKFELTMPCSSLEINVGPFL
ATP synthase F(0) complex subunit 8 (Homo sapiens), sequence (P03928 whole entry, one chain of several): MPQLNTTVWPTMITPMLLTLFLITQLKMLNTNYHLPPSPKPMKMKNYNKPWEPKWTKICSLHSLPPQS
Pleckstrin homology domain-containing family G member 3 (Homo sapiens), sequence (A1L390 whole entry, the tested form may be a part): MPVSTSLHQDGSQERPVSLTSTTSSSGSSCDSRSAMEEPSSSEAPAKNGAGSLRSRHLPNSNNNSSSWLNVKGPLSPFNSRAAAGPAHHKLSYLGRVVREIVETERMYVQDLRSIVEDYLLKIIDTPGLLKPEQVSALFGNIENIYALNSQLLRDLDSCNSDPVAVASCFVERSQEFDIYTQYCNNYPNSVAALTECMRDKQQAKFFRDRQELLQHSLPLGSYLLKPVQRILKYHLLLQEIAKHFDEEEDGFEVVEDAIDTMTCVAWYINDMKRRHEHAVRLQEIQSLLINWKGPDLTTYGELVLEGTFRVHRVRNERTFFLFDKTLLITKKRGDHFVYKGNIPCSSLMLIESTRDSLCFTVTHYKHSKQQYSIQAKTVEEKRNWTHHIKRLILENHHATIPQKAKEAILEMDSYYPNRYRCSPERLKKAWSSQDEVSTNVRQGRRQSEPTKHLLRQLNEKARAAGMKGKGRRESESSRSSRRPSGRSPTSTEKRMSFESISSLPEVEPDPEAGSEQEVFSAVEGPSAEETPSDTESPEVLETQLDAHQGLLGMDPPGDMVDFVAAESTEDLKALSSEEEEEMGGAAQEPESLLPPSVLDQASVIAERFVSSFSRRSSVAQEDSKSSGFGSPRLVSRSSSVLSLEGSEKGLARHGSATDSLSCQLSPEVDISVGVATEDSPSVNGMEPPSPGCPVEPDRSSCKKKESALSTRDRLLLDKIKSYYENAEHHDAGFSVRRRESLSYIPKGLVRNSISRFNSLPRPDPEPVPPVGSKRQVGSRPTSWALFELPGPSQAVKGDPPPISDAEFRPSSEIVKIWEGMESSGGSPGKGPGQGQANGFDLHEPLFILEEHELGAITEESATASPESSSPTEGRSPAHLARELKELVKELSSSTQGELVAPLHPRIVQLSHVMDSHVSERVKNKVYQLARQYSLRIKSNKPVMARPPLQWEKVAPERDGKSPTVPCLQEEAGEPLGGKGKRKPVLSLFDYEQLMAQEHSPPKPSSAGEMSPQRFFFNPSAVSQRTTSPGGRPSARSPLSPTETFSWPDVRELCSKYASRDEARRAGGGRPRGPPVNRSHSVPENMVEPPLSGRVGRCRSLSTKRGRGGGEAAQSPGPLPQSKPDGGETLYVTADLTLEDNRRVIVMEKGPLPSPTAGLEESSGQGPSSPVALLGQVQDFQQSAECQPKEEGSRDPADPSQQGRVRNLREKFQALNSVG
Conserved oligomeric Golgi complex subunit 2 (Homo sapiens), sequence (Q14746 whole entry, one chain of several): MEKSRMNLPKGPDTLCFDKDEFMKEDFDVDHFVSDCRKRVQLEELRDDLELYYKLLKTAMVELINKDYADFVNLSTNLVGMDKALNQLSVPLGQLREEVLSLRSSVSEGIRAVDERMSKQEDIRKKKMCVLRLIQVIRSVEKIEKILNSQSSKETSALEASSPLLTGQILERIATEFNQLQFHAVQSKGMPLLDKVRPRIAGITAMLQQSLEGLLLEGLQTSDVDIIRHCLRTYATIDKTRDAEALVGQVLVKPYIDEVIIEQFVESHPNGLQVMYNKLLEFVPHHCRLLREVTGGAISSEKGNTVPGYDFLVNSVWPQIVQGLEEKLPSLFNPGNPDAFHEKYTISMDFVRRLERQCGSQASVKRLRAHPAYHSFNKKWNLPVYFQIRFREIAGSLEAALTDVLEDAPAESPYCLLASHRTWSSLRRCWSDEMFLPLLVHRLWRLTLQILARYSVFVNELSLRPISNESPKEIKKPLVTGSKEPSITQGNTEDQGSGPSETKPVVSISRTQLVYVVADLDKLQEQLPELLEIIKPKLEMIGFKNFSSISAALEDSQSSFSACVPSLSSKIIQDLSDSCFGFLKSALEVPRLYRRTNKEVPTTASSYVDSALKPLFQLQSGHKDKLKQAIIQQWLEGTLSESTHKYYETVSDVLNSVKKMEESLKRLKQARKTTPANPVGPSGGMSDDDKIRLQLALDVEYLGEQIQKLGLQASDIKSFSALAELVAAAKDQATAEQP
Eukaryotic translation initiation factor 3 subunit D (Homo sapiens), sequence (O15371 whole entry): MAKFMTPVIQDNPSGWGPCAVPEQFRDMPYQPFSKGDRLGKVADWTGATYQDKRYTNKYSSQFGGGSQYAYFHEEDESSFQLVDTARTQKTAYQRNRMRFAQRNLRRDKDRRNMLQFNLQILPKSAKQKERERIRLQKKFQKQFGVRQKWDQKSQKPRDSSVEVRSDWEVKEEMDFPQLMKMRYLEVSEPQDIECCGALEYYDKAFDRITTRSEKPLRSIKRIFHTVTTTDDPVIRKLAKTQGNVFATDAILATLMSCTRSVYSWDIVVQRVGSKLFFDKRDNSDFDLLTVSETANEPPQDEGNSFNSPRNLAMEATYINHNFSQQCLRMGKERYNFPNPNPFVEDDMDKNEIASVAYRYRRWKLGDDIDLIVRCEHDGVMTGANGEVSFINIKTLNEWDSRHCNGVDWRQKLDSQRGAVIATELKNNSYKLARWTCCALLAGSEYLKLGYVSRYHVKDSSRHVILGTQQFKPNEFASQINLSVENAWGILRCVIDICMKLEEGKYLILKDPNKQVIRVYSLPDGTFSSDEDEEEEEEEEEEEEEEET
Transaldolase (Homo sapiens), sequence (P37837 whole entry): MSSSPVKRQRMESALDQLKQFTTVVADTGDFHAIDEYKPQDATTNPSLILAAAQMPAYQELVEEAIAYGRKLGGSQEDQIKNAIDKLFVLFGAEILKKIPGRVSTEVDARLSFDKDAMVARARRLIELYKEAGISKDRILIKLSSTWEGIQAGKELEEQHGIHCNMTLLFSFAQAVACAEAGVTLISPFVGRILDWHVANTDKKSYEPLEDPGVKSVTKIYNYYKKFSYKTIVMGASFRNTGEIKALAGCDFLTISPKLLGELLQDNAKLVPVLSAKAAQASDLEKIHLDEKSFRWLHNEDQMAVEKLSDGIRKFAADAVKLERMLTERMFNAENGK
Serine/threonine-protein kinase pim-2 (Homo sapiens), sequence (Q9P1W9 whole entry, looked up): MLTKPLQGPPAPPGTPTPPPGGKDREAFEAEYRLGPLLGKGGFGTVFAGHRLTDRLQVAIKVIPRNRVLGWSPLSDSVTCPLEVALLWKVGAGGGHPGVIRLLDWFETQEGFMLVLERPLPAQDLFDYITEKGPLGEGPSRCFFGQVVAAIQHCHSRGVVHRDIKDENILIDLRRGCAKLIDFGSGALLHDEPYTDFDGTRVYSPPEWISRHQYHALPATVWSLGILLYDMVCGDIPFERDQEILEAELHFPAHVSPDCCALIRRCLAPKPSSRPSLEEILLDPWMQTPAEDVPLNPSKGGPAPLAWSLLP
Probable rRNA-processing protein EBP2 (Homo sapiens), sequence (Q99848 whole entry): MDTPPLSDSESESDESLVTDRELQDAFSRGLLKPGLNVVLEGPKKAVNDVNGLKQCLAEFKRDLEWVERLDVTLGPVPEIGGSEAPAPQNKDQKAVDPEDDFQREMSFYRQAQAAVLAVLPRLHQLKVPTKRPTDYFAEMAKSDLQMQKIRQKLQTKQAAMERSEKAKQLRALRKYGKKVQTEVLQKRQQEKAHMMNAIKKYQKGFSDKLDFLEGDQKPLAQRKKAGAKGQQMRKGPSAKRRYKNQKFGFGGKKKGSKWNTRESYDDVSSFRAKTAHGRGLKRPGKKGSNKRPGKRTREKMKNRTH
Cytochrome c oxidase assembly protein COX14 (Homo sapiens), sequence (Q96I36 whole entry): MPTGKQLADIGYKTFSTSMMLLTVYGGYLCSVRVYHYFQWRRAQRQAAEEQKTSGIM
Ras-related protein Rab-6A (Homo sapiens), sequence (P20340 2-208 limits assumed): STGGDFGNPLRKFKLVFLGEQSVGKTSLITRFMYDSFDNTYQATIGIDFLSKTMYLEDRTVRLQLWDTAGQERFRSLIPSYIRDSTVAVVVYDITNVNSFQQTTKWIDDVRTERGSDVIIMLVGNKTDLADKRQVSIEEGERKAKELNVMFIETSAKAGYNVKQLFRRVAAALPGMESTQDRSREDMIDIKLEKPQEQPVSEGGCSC

`Cc1ccc(C(=O)Nc2cccc(C(F)(F)F)c2)cc1Nc1nc(-c2cccnc2)nc2nn(C)cc12` showed an ED50 [1] of 0.359 µM, an ED50 [2] of 0.0495 µM and an ED50 [3] of 0.535 µM. It also gave an ED50 [4] of 0.0181 µM, an ED50 [5] of 1.93 µM and an ED50 [6] of 0.0504 µM. It also gave an ED50 [7] of 0.0432 µM.
With `Cc1ccc(C(=O)Nc2cccc(C(F)(F)F)c2)cc1Nc1nc(-c2cccnc2)nc2c1cnn2C` the ED50 [8] was 55.2 µM, the ED50 [9] was 1150 µM and the ED50 [10] was 0.00397 µM. The ED50 [11] was 0.00465 µM, the ED50 [12] was 3.45 µM and the ED50 [13] was 10.1 µM. It also gave an ED50 [14] of 0.0415 µM, an ED50 [15] of 0.00157 µM and an ED50 [16] of 0.00224 µM. It also gave an ED50 [17] of 0.723 µM, an ED50 [18] of 4.37 µM and an ED50 [19] of 1590 µM. The ED50 [20] was 0.657 µM, the ED50 [21] was 0.0603 µM and the ED50 [22] was 0.00215 µM. The ED50 [23] was 0.0279 µM, the ED50 [24] was 12.1 µM and the ED50 [25] was 15.3 µM. For the same molecule, the ED50 [26] was 5470 µM, the ED50 [27] was 2.87 µM and the ED50 [28] was 0.00496 µM. The ED50 [29] was 0.0971 µM, the ED50 [30] was 6.96 µM and the ED50 [31] was 12.2 µM. It also gave an ED50 [32] of 15.4 µM, an ED50 [33] of 0.0685 µM and an ED50 [34] of 0.00453 µM. It also gave an ED50 [35] of 3.87 µM, an ED50 [36] of 4.7 µM and an ED50 [37] of 0.00553 µM. It also gave an ED50 [38] of 0.175 µM, an ED50 [39] of 0.0299 µM and an ED50 [40] of 0.181 µM. For the same molecule, the ED50 [41] was 45.6 µM, the ED50 [42] was 0.136 µM and the ED50 [43] was 0.0394 µM. The ED50 [44] was 0.112 µM, the ED50 [45] was 0.675 µM and the ED50 [46] was 15.6 µM. The ED50 [47] was 676 µM, the ED50 [48] was 5.28 µM and the ED50 [49] was 0.887 µM.
